Literature values as cited in patent publication US20240261217A1, “NUTRACEUTICAL GUMMY COMPOSITIONS AND METHOD OF PREVENTING ALCOHOL OVERCONSUMPTION SYMPTOMS” (LiQure, Inc., priority 2023, published 2024).
Entries after “also recorded” stand apart in the source; their conditions may differ.

What was measured:
[1] = system: alcohol dehydrogenase (ADH)
[2] = in vivo
[3] = system: acetaldehyde dehydrogenase (ALDH)
[4] = system: liver; settings: mouse, in vivo
[5] = recent studies
[6] = system: intoxicated mice; settings: DHM administered to intoxicated mice

For `O=C1c2c(O)cc(O)cc2O[C@H](c2cc(O)c(O)c(O)c2)[C@H]1O` [DHM, Dihydromyricetin], which “hangover symptoms compared with people who did not take DHM” value (during a hangover) is on record?
Its value is “fewer headaches, less dizziness, less nausea, and less weakness during a hangover”.

And the “symptoms when taking DHM after drinking alcohol” value (studies and anecdotal reports, users)?
The value was “fewer headaches, less nausea, less vomiting and less anxiety”.

And the “effect on activity of alcohol dehydrogenase (ADH)” value [1]?
The value was “enhances the activity of these enzymes”.

And the “amount found to mitigate symptoms of over-intoxication from alcohol” value [2]?
The value was 100 to 650 mg.

And the “effect on activity of acetaldehyde dehydrogenase (ALDH)” value [3]?
The value was “enhances the activity of these enzymes”.

And the “effect on alcohol-induced liver damage” value [4]?
The value was “can also prevent (and help repair) alcohol-induced liver damage; also recorded: protect the liver from alcohol-induced damage”.

And the “effect on blood alcohol levels” value [5]?
The value was “can reduce blood alcohol levels”.

What about the anti-hangover benefits [6] of the same compound?
Its anti-hangover benefits is “provide “anti-hangover” benefits”.

What about the liver-protection properties [6] of the same compound?
Its liver-protection properties is “possesses liver-protection properties”.
